# Test results published in US20120121574A1, “ANTIMICROBIAL, ANTIVIRAL, ANTICANCER AND IMMUNOMODULATORY PEPTIDES AND USES THEREFORE” (priority 2010, published 2012).
# Where a SMILES comes first, the peptide text is derived from it. Where no end group is shown, it is not given here.
# What was measured:
# [1] = system: peritoneal murine macrophages (PM); test: in vitro immunomodulatory activity on murine peritoneal macrophages (PM); assay type: cell-based, mouse; conditions: mouse peritoneal macrophages, FIG. 73
# Protocol: In vitro immunomodulatory activity of MoA VHCDR3 on murine immune cells. FIGS. 47-51 are graphs showing TNF-α and IL-6 production by PM and PMN stimulated with MoA CDRs and mouse MoA VHCDR3 uptake by different cell populations. Cells were cultured in the presence or absence (NS) of human and/or mouse CDRs, lipopolisaccharide (LPS), or negative control peptide (NC) (all 10 micrograms/ml) for 18 hr. Both PM and PMN cell populations were 5×10^6/ml. After incubation, TNF-α and IL-6 levels were evaluated in culture supernatants by specific ELISA assays (* P<0.05 treated vs untreated cells, n=7). In FIG. 51, dendritic cells (DC), PM, PMN, and T cells (all 1×10^6/ml) were incubated for 1 hr in the presence or absence (NS) of biotinylated (b)-MoA VHCDR3 or b-NC (both 10 micrograms/ml). After incubation, permeabilized cells were reacted with FITC-labelled mAb to biotin (b) and analyzed by FACScan flow cytometry. Data are reported as the percentage of positive cells *, P<0.05 (b-VHCDR3 treated vs untreated cells, n=5). Error bars, s.e.m. FIGS. 52A and B show graphs and colored cell staining micrograph of kinetic of VHCDR3 uptake by PM. PM (1×10^6/ml) were incubated for different times with b-VHCDR3 or b-NC (all 10 micrograms/ml). After incubation, permeabilized cells were reacted with FITC-labelled mAb to biotin and analyzed by FACScan flow cytometry. Data are reported as the mean fluorescence intensity (MFI) and percentage of positive cells (FIG. 52A) (* P<0.05 b-VHCDR3-treated vs untreated cells, n=7). Error bars, s.e.m. In selected experiments, cells were incubated for 1 hr as above described, reacted with FITC-labelled mAb to biotin in the presence of Evans' Blue as a counter stain, and subsequently examined under fluorescent light microscopy (FIG. 52B). Note the green fluorescence of b-VHCDR3 treated cells. Original magnification 20×. In FIGS. 53 and 54 is shown the phospho-Akt activation and TNF-α production in PM stimulated with MoA VHCDR3. PM (3×10^6/ml) were stimulated for 1 hr in the presence or absence (NS) of MoA VHCDR3, LPS, an irrelevant control peptide (NC) or a scrambled peptide (SP) (all 10 micrograms/ml). After incubation, cell lysates were subjected to Western blotting. Membranes were incubated with Abs to pAkt and Akt; pAkt was normalized against Akt (FIG. 53)*, P<0.05 (treated vs untreated cells, n=5). […] PM (5×10^6/ml) were stimulated for 18 hr as above described. After incubation, TNF-α level was evaluated in culture supernatants by specific ELISA assays. (FIG. 54)*, P<0.05 (treated vs untreated cells, n=5). In FIGS. 55 and 56 is shown the phospho-IkBα activation and TNF-α gene expression in PM stimulated with MoA VHCDR3. PM (3×10^6/ml) were stimulated for 1 hr in the presence or absence (NS) of wortmannin (4 nM), MoA VHCDR3, LPS or NC (all 10 micrograms/ml). After incubation, cell lysates were subjected to Western blotting. Membranes were incubated with Abs to pIkBα and IkBα; pIkBα was normalized against IkBα. (FIG. 55)*, P<0.05 (treated versus untreated cells, n=5); †, P<0.05 (wortmannin-treated vs wortmannin-untreated cells, n=5). For testing the expression level of TNF-α gene, PM (1×10^6/ml) were cultured for 1, 6 and 18 hr as above described. After incubation, total RNA was isolated and analyzed for mRNA expression with RT-PCR (FIG. 56). Transcript copy numbers were determined by qPCR using cDNA as a template. Copy numbers were normalized against the copy number of the GADPH gene (B). […]
# [2] = system: C. albicans SC5314 strain; conditions: for EC50: SC5314, 6 h; for EC50asd/EC50N10K: Table IX
# Protocol: In vitro activity of N10K against C. albicans SC5314 strain. The candidacidal activity of N10K peptide against C. albicans was assessed by a conventional colony forming unit (CFU) assay as previously described (Polonelli et al., 2003; Manfredi et al., 2005). Briefly, cells of C. albicans SC5314 were incubated at 37° C. for 6 hours (hr) in the presence of N10K at the concentration indicated of 20, 12.5 or 6.25 microgram/ml, or in distilled water as control (C). After incubation, cell suspensions were plated on Sabouraud dextrose agar and incubated at 30° C. for 48 hours when CFU were counted (** P<0.01 for N10K treated versus untreated cells, by t test). […]
# The alanine-substituted derivatives (asd), defined according to the position held by the alanine-substituted aminoacid, were tested against C. albicans by a conventional colony forming unit (CFU) as previously described (Polonelli et al., 2003). Briefly, cells of C. albicans SC5314 were incubated at 37° C. for 6 hours in the presence of N10K or N10K asd at different scalar concentrations or distilled water as control. After incubation, cell suspensions were plated on Sabouraud dextrose agar and incubated at 30° C. for 48 hours when CFU were counted. Based on several independent replications, the EC50 value of each peptide was calculated by nonlinear regression analysis using Graph Pad Prism 4.01 software, San Diego, Calif., USA. […]
# In vitro microbicidal activity of N10K derivative with 2 amino acid substitutions, or 80% sequence identity with native N10K, namely peptide Seq Id. No. 25 was tested against Candida albicans SC5314 as determined by Colony Forming Unit assay.
# [3] = system: C. albicans AIDS68 strain; test: murine model of vaginal candidiasis, fluconazole-resistant strain; assay type: in vivo, mice; conditions: peptide 25 micrograms intravaginally 1, 24 and 48 hours after challenge
# Protocol: (§1) In vivo activity of N10K against vaginal candidiasis caused in mice by the fluconazole-resistant C. albicans AIDS68 strain. The anticandidal therapeutic activity of N10K was evaluated in a murine model of vaginal candidiasis. Groups of 5 mice were injected subcutaneously with 0.02 mg of estradiol benzoate in 100 μl of saline solution, […] and weekly thereafter. Then, mice given intravaginally 10^6 cells of the fluconazole-resistant C. albicans strain AIDS68 in 20 μl of saline solution on day 0 and were sampled for intravaginal CFU. N10K, 25 micrograms, was intravaginally administered in comparison to an irrelevant peptide (SP) as control, 1, 24 and 48 hours after the infectious challenge and sampled for intravaginal CFU at days 1, 2, 5, 7, 14, 21, and 28. The statistical significance was assessed by two-tailed Student's t test. On days 1, 2, 5, 7, 14, and 21, the differences in the CFU vaginal counts between N10K treated, untreated, SP treated and fluconazole treated animals were statistically significant (P<0.05) (Table VI).
# as §1, with “T11F” for “N10K”, “T11F,” for “N10K,”, “VIII).” for “VI).”
# [4] = system: U937 cell line; test: annexine-V/propidium iodide flow cytometry on U937; conditions: annexine-V/propidium iodide staining
# [5] = system: C. neoformans 6995 strain; conditions: 6995 strain, 6 h
# Protocol: After the incubation period, the cell suspensions have been plated on Sabouraud dextrose agar, then incubated at 30° C. and observed for CFU enumeration after 48 hours.
Compound,EC50 [2] [µM],EC50asd/EC50N10K [2],other results
G Q Y G A L W F A Y (GQYGALWFAY) [Peptide A5],,,TNF-α-inducing activity compared with VHCDR3 [1]: either unchanged or slightly reduced
"NQASLTCLVK [asd V3A N10K, N Q A S L T C L V K]",5.93,5.91,
"AQVSLTCLVK [asd N1A N10K, A Q V S L T C L V K]",0.587,0.58,
"NQVSLTCLAK [asd V9A N10K, N Q V S L T C L A K]",1.78,1.77,
"NQVSATCLVK [asd L5A N10K, N Q V S A T C L V K]",0.885,0.88,
OC(Cn1cncn1)(Cn1cncn1)c1ccc(F)cc1F [fluconazole],,,CFU vaginal counts ([3]; Day 0): >100; CFU vaginal counts ([3]; Day 1): >100; CFU vaginal counts ([3]; Day 2): 93 ± 4.3; CFU vaginal counts ([3]; Day 5): 61 ± 2.5; CFU vaginal counts ([3]; Day 7): 44 ± 2.9; CFU vaginal counts ([3]; Day 14): 18.7 ± 3.8; CFU vaginal counts ([3]; Day 21): 11.7 ± 0.7; CFU vaginal counts ([3]; Day 28): 0
"NQVSLTCAVK [asd L8A N10K, N Q V S L T C A V K]",0.744,0.74,
"NQVSLTALVK [asd C7A N10K, N Q V S L T A L V K]",54.9,54.71,
"TCRVDHRGLTF [Peptide T11F, T C R V D H R G L T F]",1.6,,induction of apoptotic/necrotic effects [4]: exclude the induction of apoptotic/necrotic effects; EC50 [5]: 2.69 µM
"NQVSATCSVK [L5A, L8S N10K, N Q V S A T C S V K]",43.2,,"Activity ([2]; Table III, in vitro, Fungus): cidal"
"CC(C)C[C@H](NC(=O)[C@H](C)NC(=O)[C@H](CCC(=O)O)NC(=O)[C@@H](N)Cc1c[nH]cn1)C(=O)O [Peptide H4L, H E A L] (H-HEAL-OH)",,,induction of apoptotic/necrotic effects [4]: exclude the induction of apoptotic/necrotic effects
"NQVSLACLVK [asd T6A N10K, N Q V S L A C L V K]",4.88,4.86,
N Q V S L T C L V A (NQVSLTCLVA) [asd K10A],,,"percentual inhibition of C. albicans growth ([2]; at the concentration of 250 micrograms/ml): * EC50 was not determined, asd K10A showed a percentual inhibition of C. albicans growth equal to 69.04 at the concentration of 250 micrograms/ml"
G Q A G N L W F A Y (GQAGNLWFAY) [Peptide A3],,,TNF-α-inducing activity compared with VHCDR3 [1]: either unchanged or slightly reduced
"NQVALTCLVK [asd S4A N10K, N Q V A L T C L V K]",2.39,2.38,
